Experimental data as given in US8685999B2, “Beta carboline sulphonylurea derivatives as EP4 receptor antagonists” (Merck Sharp & Dohme Corp., priority 2008, dated 2014).
Where two headings read alike, the source gives them in different places.

Target: T1, EP4 (Homo sapiens, UniProt P35408)
T1 construct: expressed in transfected cells; membranes prepared by differential centrifugation
Experiment: Prostanoid receptor binding assay (radioligand displacement binding assay)
Experimental: Prostanoid receptor cDNAs corresponding to full length coding sequences are subcloned into the appropriate sites of mammalian expression vectors and transfected into HEK 293(ebna) cells. HEK 293(ebna) cells expressing the individual cDNAs are grown under selection and individual colonies are isolated after 2-3 weeks of growth using the cloning ring method and subsequently expanded into clonal cell lines.
Transfected HEK 293(ebna) cells are maintained in culture, harvested and membranes are prepared by differential centrifugation, following lysis of the cells in the presence of protease inhibitors, for use in receptor binding assays. Prostanoid receptor binding assays (for DP1, DP2 (CRTH2), EP1, EP2, EP3-III, EP4, FP, IP, and TP) are performed in 10 mM MES/KOH (pH 6.0) (EPs, FP and TP) or 10 mM HEPES/KOH (pH 7.4) (DPs and IP), containing 1 mM EDTA, 2.5-30 mM divalent cation and the appropriate radio-ligand. Synthetic compounds are added in DMSO which is kept constant at 1% (v/v) in all incubations. The reaction is initiated by addition of membrane protein. Non-specific binding is determined in the presence of 10 μM of the corresponding non-radioactive prostanoid. Incubations are conducted for 60-120 min at room temperature or 30° C. and terminated by rapid filtration. Specific binding is calculated by subtracting non specific binding from total binding. The residual specific binding at each ligand concentration is calculated and expressed as a function of ligand concentration in order to construct sigmoidal concentration-response curves. The binding affinity of the compounds is determined by calculating the equilibrium inhibition constant (Ki) from the equation Ki=InPt/1+[radio-ligand]/Kd where Kd is the equilibrium dissociation constant for the radio-ligand:receptor interaction and InPt is the inflection point of the dose-response curves.
Abramovitz, M. et al., Biochem, Biophys. Acta, 2000, 1483, pp. 285.

[1] = column marked X when IC50 between 1 and 5, read-out: IC50 (nm) 1 < X < 5
[2] = radioligand displacement binding assay, read-out: IC50
[3] = column marked X when IC50 < 1, read-out: IC50 (nm) X < 1
[4] = column marked X when IC50 > 5, read-out: IC50 (nm) X > 5

T1 sequence (P35408 whole entry): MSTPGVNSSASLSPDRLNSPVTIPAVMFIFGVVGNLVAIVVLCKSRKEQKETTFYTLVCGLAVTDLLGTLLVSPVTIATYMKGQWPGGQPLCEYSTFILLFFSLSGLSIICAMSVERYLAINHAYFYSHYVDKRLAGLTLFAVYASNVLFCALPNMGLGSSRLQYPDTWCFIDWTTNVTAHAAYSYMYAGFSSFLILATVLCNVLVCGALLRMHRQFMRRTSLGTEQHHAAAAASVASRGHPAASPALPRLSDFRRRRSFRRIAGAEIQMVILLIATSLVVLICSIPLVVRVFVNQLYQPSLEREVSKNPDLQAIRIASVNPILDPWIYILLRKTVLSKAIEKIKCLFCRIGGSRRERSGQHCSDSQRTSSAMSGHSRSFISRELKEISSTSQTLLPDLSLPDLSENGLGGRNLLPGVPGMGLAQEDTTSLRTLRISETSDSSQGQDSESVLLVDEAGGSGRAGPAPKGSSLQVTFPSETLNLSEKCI

CN1CCc2c(n(-c3ccc(CC4(NC(=O)NS(=O)(=O)c5ccc(Cl)cc5)CC4)cc3)c3ccc(-c4ccccc4)cc23)C1=O [Example 1-1, 4-chloro-N-[({1-[4-(2-methyl-1-oxo-6-phenyl-1,2,3,4-tetrahydro-9H-beta-carbolin-9-yl)benzyl]cyclopropyl}amino)carbonyl]benzenesulfonamide]
IC50 [1]: 1 to 5 nM
IC50 [2]: 1 to 5 nM

Cc1ccc(S(=O)(=O)NC(=O)NCCc2ccc(-n3c4c(c5c(C)cc(C)cc53)CCN(C)C4=O)cc2)cc1 [Example 1-2, 4-methyl-N-[({2-[4-(2,5,7-trimethyl-1-oxo-1,2,3,4-tetrahydro-9H-beta-carbolin-9-yl)phenyl]ethyl}amino)carbonyl]benzenesulfonamide]
IC50 [3]: < 1 nM

CN1CCc2c(n(-c3ccc(CCNC(=O)NS(=O)(=O)c4ccc(Cl)cc4)cc3)c3cc(Cl)cc(Cl)c23)C1=O [Example 1-3, 4-chloro-N-[({2-[4-(5,7-dichloro-2-methyl-1-oxo-1,2,3,4-tetrahydro-9H-beta-carbolin-9-yl)phenyl]ethyl}amino)carbonyl]benzenesulfonamide]
IC50 [3]: < 1 nM

CN1CCc2c(n(-c3ccc(CCNC(=O)NS(=O)(=O)c4ccc(Cl)cc4)cc3)c3ccc(Cl)cc23)C1=O [Example 1-4, 4-chloro-N-[({2-[4-(6-chloro-2-methyl-1-oxo-1,2,3,4-tetrahydro-9H-beta-carbolin-9-yl)phenyl]ethyl}amino)carbonyl]benzenesulfonamide]
IC50 [3]: < 1 nM

CN1CCc2c(n(-c3ccc(CCNC(=O)NS(=O)(=O)c4ccc(Cl)cc4)cc3)c3ccc(Br)cc23)C1=O [Example 1-5, N-[({2-[4-(6-bromo-2-methyl-1-oxo-1,2,3,4-tetrahydro-9H-beta-carbolin-9-yl)phenyl]ethyl}amino)carbonyl]-4-chlorobenzenesulfonamide]
IC50 [3]: < 1 nM

CCN1CCc2c(n(-c3ccc(CCNC(=O)NS(=O)(=O)c4ccc(Cl)cc4)cc3)c3cc(Cl)cc(Cl)c23)C1=O [Example 1-6, 4-chloro-N-[({2-[4-(5,7-dichloro-2-ethyl-1-oxo-1,2,3,4-tetrahydro-9H-beta-carbolin-9-yl)phenyl]ethyl}amino)carbonyl]benzenesulfonamide]
IC50 [3]: < 1 nM

O=C(NCCc1ccc(-n2c3c(c4c(Cl)cc(Cl)cc42)CCN(CC2CC2)C3=O)cc1)NS(=O)(=O)c1ccc(Cl)cc1 [Example 1-7, 4-chloro-N-{[(2-{4-[5,7-dichloro-2-(cyclopropylmethyl)-1-oxo-1,2,3,4-tetrahydro-9H-beta-carbolin-9-yl]phenyl}ethyl)amino]carbonyl}benzenesulfonamide]
IC50 [1]: 1 to 5 nM
IC50 [2]: 1 to 5 nM

CN1CCc2c(n(-c3ccc(CCNC(=O)NS(=O)(=O)c4ccc(Cl)cc4)cc3)c3ccc(-c4ccccc4)cc23)C1=O [Example 1-8, 4-chloro-N-[({2-[4-(2-methyl-1-oxo-6-phenyl-1,2,3,4-tetrahydro-9H-beta-carbolin-9-yl)phenyl]ethyl}amino)carbonyl]benzenesulfonamide]
IC50 [3]: < 1 nM

O=C(NCCc1ccc(-n2c3c(c4c(Cl)cc(Cl)cc42)CCN(c2ccccc2)C3=O)cc1)NS(=O)(=O)c1ccc(Cl)cc1 [Example 1-9, 4-chloro-N-[({2-[4-(5,7-dichloro-1-oxo-2-phenyl-1,2,3,4-tetrahydro-9H-beta-carbolin-9-yl)phenyl]ethyl}amino)carbonyl]benzenesulfonamide]
IC50 [4]: > 5 nM
IC50 [2]: > 5 nM

CN1CCc2c(n(-c3ccc(CCNC(=O)NS(=O)(=O)c4ccc(Cl)cc4)cc3)c3cc(Cl)c(Cl)cc23)C1=O [Example 1-10, 4-chloro-N-[({2-[4-(6,7-dichloro-2-methyl-1-oxo-1,2,3,4-tetrahydro-9H-beta-carbolin-9-yl)phenyl]ethyl}amino)carbonyl]benzenesulfonamide]
IC50 [3]: < 1 nM

CN1CCc2c(n(-c3ccc(CCNC(=O)NS(=O)(=O)c4ccc(Cl)cc4)cc3)c3ccc(Cl)c(Cl)c23)C1=O [Example 1-11, 4-chloro-N-[({2-[4-(5,6-dichloro-2-methyl-1-oxo-1,2,3,4-tetrahydro-9H-beta-carbolin-9-yl)phenyl]ethyl}amino)carbonyl]benzenesulfonamide]
IC50 [3]: < 1 nM

CN1CCc2c(n(-c3ccc(CCNC(=O)NS(=O)(=O)c4ccc(Cl)cc4)cc3)c3cc(Cl)ccc23)C1=O [Example 1-12, 4-chloro-N-[({2-[4-(7-chloro-2-methyl-1-oxo-1,2,3,4-tetrahydro-9H-beta-carbolin-9-yl)phenyl]ethyl}amino)carbonyl]benzenesulfonamide]
IC50 [3]: < 1 nM

CN1CCc2c(n(-c3ccc(CCNC(=O)NS(=O)(=O)c4ccc(Cl)cc4)cc3)c3cccc(Cl)c23)C1=O [Example 1-13, 4-chloro-N-[({2-[4-(5-chloro-2-methyl-1-oxo-1,2,3,4-tetrahydro-9H-beta-carbolin-9-yl)phenyl]ethyl}amino)carbonyl]benzenesulfonamide]
IC50 [3]: < 1 nM

CN1CCc2c(n(-c3ccc(CCNC(=O)NS(=O)(=O)c4ccc(Cl)cc4)cc3)c3cccc(Br)c23)C1=O [Example 1-14, N-[({2-[4-(5-bromo-2-methyl-1-oxo-1,2,3,4-tetrahydro-9H-beta-carbolin-9-yl)phenyl]ethyl}amino)carbonyl]-4-chlorobenzenesulfonamide]
IC50 [3]: < 1 nM

CN1CCc2c(n(-c3ccc(CCNC(=O)NS(=O)(=O)c4ccc(Cl)cc4)cc3)c3cc(Br)ccc23)C1=O [Example 1-15, N-[({2-[4-(7-bromo-2-methyl-1-oxo-1,2,3,4-tetrahydro-9H-beta-carbolin-9-yl)phenyl]ethyl}amino)carbonyl]-4-chlorobenzenesulfonamide]
IC50 [3]: < 1 nM

CN1CCc2c(n(-c3ccc(CC4(NC(=O)NS(=O)(=O)c5ccc(Cl)cc5)CC4)cc3)c3ccc(Br)cc23)C1=O [Example 1-16, N-[({1-[4-(6-bromo-2-methyl-1-oxo-1,2,3,4-tetrahydro-9H-beta-carbolin-9-yl)benzyl]cyclopropyl}amino)carbonyl]-4-chlorobenzenesulfonamide]
IC50 [3]: < 1 nM

CN1CCc2c(n(-c3ccc(CCNC(=O)NS(=O)(=O)c4ccc(Cl)cc4)cc3)c3cccc(-c4ccccc4)c23)C1=O [Example 1-17, 4-chloro-N-[({2-[4-(2-methyl-1-oxo-5-phenyl-1,2,3,4-tetrahydro-9H-beta-carbolin-9-yl)phenyl]ethyl}amino)carbonyl]benzenesulfonamide]
IC50 [3]: < 1 nM

CN1CCc2c(n(-c3ccc(CCNC(=O)NS(=O)(=O)c4ccc(Cl)cc4)cc3)c3cc(-c4ccccc4)ccc23)C1=O [Example 1-18, 4-chloro-N-[({2-[4-(2-methyl-1-oxo-7-phenyl-1,2,3,4-tetrahydro-9H-beta-carbolin-9-yl)phenyl]ethyl}amino)carbonyl]benzenesulfonamide]
IC50 [4]: > 5 nM
IC50 [2]: > 5 nM

CN1CCc2c(n(-c3ccc(CCNC(=O)NS(=O)(=O)c4ccc(Cl)cc4)cc3)c3ccc(-c4ccc(F)cc4)cc23)C1=O [Example 1-19, 4-chloro-N-{[(2-{4-[6-(4-fluorophenyl)-2-methyl-1-oxo-1,2,3,4-tetrahydro-9H-beta-carbolin-9-yl]phenyl}ethyl)amino]carbonyl}benzenesulfonamide]
IC50 [3]: < 1 nM

CN1CCc2c(n(-c3ccc(CCNC(=O)NS(=O)(=O)c4ccc(Cl)cc4)cc3)c3c(Cl)cccc23)C1=O [Example 1-20, 4-chloro-N-[({2-[4-(8-chloro-2-methyl-1-oxo-1,2,3,4-tetrahydro-9H-beta-carbolin-9-yl)phenyl]ethyl}amino)carbonyl]benzenesulfonamide]
IC50 [4]: > 5 nM
IC50 [2]: > 5 nM
